In PMC9321718 (Pharmaceuticals, 2022):
“Also recorded” adds a separate entry of the source. Like-named read-outs stand apart in the source and are kept apart here.

Columns and labels:
[1] = Formation of inclusion complexes with MCD (UV spectroscopy, Hill linearization); assay type: physicochemical; details: MCD; for EE, % / LC, %: C(MCD) = 0.01 M, pH 6.2, 22 °C; for n: Xaq + n MCDaq ⇌ X·nMCDaq, 5 mM sodium phosphate buffer pH 6.2, 22 °C
Protocol: To optimize the system composition, similar experiments were carried out on the formation of EG and apiol inclusion complexes with HPCD (Figure S1). […] According to these changes, the dissociation constants of the EG–HPCD and apiol–HPCD complexes (Figure S2) were calculated by Hill’s equation (Table 1). […] The physicochemical parameters of the interaction of APAB and terpenoids (X) with CD were studied by determining the concentration of substances in the aqueous fraction ([APAB] + [APAB-MCD]) according to the calibration dependence (Figure 1C) for systems with a constant amount of the essential oil component X and the concentration gradient MCD (Table 1). Theta (θ) is a fraction of the bound substance X:θ = [X-MCD]/([X-MCD] + [X]) and was calculated based on the dependence of the absorption intensity X on the MCD concentration in the system in the form of a sigmoidal Hill curve with subsequent linearization (Section 3, Section 3.3 and Section 3.4).
The molar excess of CD varied from 0.04 to 10). Further, the complexes were incubated for 1 h at 37 °C and then centrifuged ([…], 15 min, Eppendorf tubes) to separate the insoluble fractions. Complexes were studied by UV and FTIR spectroscopy.
UV spectra of solutions (point 3.3.1) were recorded on the AmerSham Biosciences UltraSpec 2100 pro device (USA) three times in the range of 200–400 nm in a quartz cell Hellma 100–QS with an optical path of 1 cm. Background spectrum (5 mM sodium phosphate buffer (pH 6.2) with 50% EtOH) was subtracted as a blank.
(1) Calculation of the dissociation constants X–MCD and X–HPCD, where X is a “guest” compound, considering the equilibrium: Xaq + n MCDaq ↔ X·nMCDaq, where Kd = [MCDaq]^n · [Xaq]/[X·nMCDaq].
First, fitting of the curves of change of the analytical signal ξ (peak intensity or peak position) versus concentration of the MCD or HPCD or was carried out using the Hill equations: (1) ξ = ξ∞ · [MCD]^n/([MCD]^n + K^n), where ξ∞—horizontal asymptote; (2) ξ = ξ0 + (ξ∞–ξ0) · [MCD]^n/([MCD]^n + K^n). Second, calculation n and Kd values by Hill’s linearization in n-binding site model: lg (θ/(1 – θ)) = n · lg [L] – lg Kd, where θ = |(ξ – ξ0)/(ξ∞ − ξ0)|is a fraction of the bound substance. N in Hill equation—number of drug molecules per CD torus.
Calculations for the following items are performed when [MCD] = 0.01 M.

E. coli = assay: Synergy of adjuvant-MCD with Lev-MCD, growth inhibition zones in agar; assay type: cell-based, Escherichia coli; details: for D, diameter of bacterial inhibition zone surrounding Lev–MCD with APAB-MCD: Lev-MCD + X-MCD (1:2), ±0.5; for ϕLev = (D/DLev)^2: ±0.1; for FICI: ±15%; for increase in Lev antibacterial activity / efficacy: growth inhibition diameter measurement in agar, inclusion complexes with MCD
Protocol: We obtained complex formulations containing adjuvants-MCD and Lev-MCD. These complexes were referred to as enhanced Lev. The synergy effect was studied at a constant concentration of Lev and a variable concentration of an enhancer. […] Based on the D/DLev ratio, the effectiveness of cooperative antibacterial action (ϕ) of the adjuvant and Lev was calculated. The fractional inhibitory concentration (FIC) parameter was introduced: at a fixed Lev concentration, the FIC of adjuvant corresponds to the minimum fractional adjuvant concentration at which the antibacterial effect was still manifest (MICadjuvant in the presence of Lev). The fractional inhibitory concentration index (FICI) characterizes the ratio of the active Lev and adjuvant concentrations to the MIC values of these substances individually: FICI=[Lev]/MIC(Lev)[…][adjuvant]/MIC(adjuvant) (see Section 3).
The FICI was interpreted as: synergism (<0.35), additivity (0.35–0.75), indifference (0.75–1.4), or antagonism (>1.4). FICI is designed to determine the type of Lev interaction with adjuvants.
The study of the antibacterial effect of Lev and adjuvants was carried out by (a) agar diffusion test and (b) broth micro-dilution method. (a) A measured 500 µL of 100-fold culture dilution was evenly distributed over a solid nutrient medium (LB, pH 7.2) on a Petri dish. After 20 min, agar disks with a diameter of 9 mm were removed from the cups and 50 µL of the test samples were placed in the formed wells at the required concentration in a sterile PBS buffer (see Section 3.3 (2)). After 30 min, Petri dishes were placed in a 37 °C thermostat. […] Minimum inhibitory concentrations (MICs) are determined as the infimum of multiple concentrations of an antimicrobial that inhibits the visible growth of a microorganism after overnight incubation. (b) According to the standard broth micro-dilution method, 200 µL of the overnight culture (5 × 10^6 CFU) was placed into a 96 micro-titer plate wells. Then 50 µL of tested samples was added. The range of tested Lev concentration was 4–200 ng/mL, adjuvants concentration was in the range of 0.008–2 mg/mL. […] The dependence of CFU (determined by A600) on the concentration of Lev, APAB or terpenoid (briefly X) was approximated according to the Boltzmann equation (Origin software): CFU = (control CFU)/(1 + exp(([X] − MIC50)/constant value)). […] In other words, the concentration at which the ordinate value (CFU) is equal to 50 or 10% of the control sample minus the background.
The FICI was interpreted as: synergism (<0.35), additivity (0.35–0.75), indifference (0.76–1.4), or antagonism (>1.4). The essence of this expression is to calculate the average change in the effective concentration compared to MIC. Note that the most important parameter corresponds to a decrease in MIC of Lev. However, FICI is designed to determine the type of interaction Lev with adjuvants.

Structure (SMILES) | EE, % [1] [%] | LC, % [1] [%] | n [1] | D, diameter of bacterial inhibition zone surrounding Lev–MCD with APAB-MCD (E. coli; E. coli, CLev 0.1 μg/mL) [mm] | ϕLev = (D/DLev)^2 (E. coli; E. coli, CLev 0.1 μg/mL) | FICI (E. coli; E. coli, CLev 0.1 μg/mL) | D, diameter of bacterial inhibition zone surrounding Lev–MCD with APAB-MCD (E. coli; E. coli, CLev 0.15 μg/mL) [mm] | ϕLev = (D/DLev)^2 (E. coli; E. coli, CLev 0.15 μg/mL) | FICI (E. coli; E. coli, CLev 0.15 μg/mL) | decrease of MICLev in the presence of adjuvant (E. coli; E. coli) | other results
C=CCc1ccc(O)c(OC)c1 [Eugenol, 4-allyl-2-methoxyphenol] | 39 ± 3 | 10 ± 1 | 1.32 ± 0.08 | 20 | 3.3 | 0.10 | 15 | 2.3 | 0.05 | – | D, diameter of bacterial inhibition zone surrounding Lev–MCD with APAB-MCD (E. coli; E. coli, CLev 0.03 μg/mL): 14 mm; ϕLev = (D/DLev)^2 (E. coli; E. coli, CLev 0.03 μg/mL): 2.0; FICI (E. coli; E. coli, CLev 0.03 μg/mL): 0.30; D, diameter of bacterial inhibition zone surrounding Lev–MCD with APAB-MCD (E. coli; E. coli, CLev 0.05 μg/mL): 17 mm; ϕLev = (D/DLev)^2 (E. coli; E. coli, CLev 0.05 μg/mL): 2.9; FICI (E. coli; E. coli, CLev 0.05 μg/mL): 0.08; D, diameter of bacterial inhibition zone surrounding Lev–MCD with APAB-MCD (E. coli; E. coli, CLev 0.5 μg/mL): 26 mm; ϕLev = (D/DLev)^2 (E. coli; E. coli, CLev 0.5 μg/mL): 1.3; FICI (E. coli; E. coli, CLev 0.5 μg/mL): 1.3; amplification effect of adjuvant (E. coli; E. coli, at minimal Lev concentrations): 3 fold; MICLev in the presence of adjuvant (E. coli; E. coli, reduced from 0.10 μg/mL): 0.015 to 0.02 µg/mL; decrease of Lev MIC (E. coli; conclusions, bacterium not stated): 3–4 times; increase in Lev antibacterial activity / efficacy (E. coli; listed as EG): over three-fold; also recorded: two–three-fold
CC1CCC(C(C)C)C(O)C1 (stereo not shown) [Menthol] | 91 ± 6 | 11 ± 1 | 1.1 ± 0.1 | 13.5 | 1.7 | 0.02 | 14 | 2.0 | 0.15 | up to twice | EE, % ([1]; listed as menthol): more than 90%; increase in Lev antibacterial activity / efficacy (E. coli): two–three-fold
C=CCc1ccc2c(c1)OCO2 [Safrole] | 95 ± 4 | 8 ± 1 | 1.5 ± 0.2 | – | – | – | 14.5 | 2.1 | 0.09 | – | EE, % ([1]; listed as safrole): more than 90%; MICLev in the presence of adjuvant (E. coli): 0.015 to 0.02 µg/mL
C=CCc1cc(OC)c2c(c1OC)OCO2 [Apiol] | 20 ± 2 | 11 ± 1 | 1.6 ± 0.2 | 14.5 | 1.6 | 0.35 | 14 | 2.0 | 0.20 | up to twice | –
